Here are results for nine compounds from ChEMBL document CHEMBL1201862, “PubChem BioAssay data set” (2004).

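All cell lines were grown in 96-well plates and treated with compound for 48 hours. At the GI50, growth is halved.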 The source made the active and inactive calls. Cut-off read from the data, not from the text of the source: active = GI50 up to about 1.1 µM and inactive = higher.

What all share (assay): NCI tumour cell line growth inhibition, 48 h
The test system of test [1] is OVCAR-4.
Test [2] deals with KM12.
Test [3] has as its system SF-539.
The test system of test [4] is HCT-116.
The subject of test [5] is UACC-257.
Test [6] has as its system IGROV-1.
The test system of test [7] is MOLT-4.
In test [8] the test system is M14.
For test [9], the system named is A549.
Test [10] has as its system ACHN.
Test [11] relates to SR.
The subject of test [12] is COLO 205.
Test [13] has as its system K562.
Test [14] concerns HT-29.
The test system of test [15] is CCRF-CEM.
Test [16] relates to UACC-62.

For the compound `COc1cc(/C=C(\C)c2ccc3c(c2)OCO3)cc(OC)c1OC`, the GI50 in test [1] was 32.5 µM (inactive); in [2] it was 44.5 µM (inactive); in test [3], 14.1 µM (inactive); in test [4] it was 31.8 µM (inactive); in test [5], 29.2 µM (inactive); in test [6], 25.1 µM (inactive). In addition, the GI50 in test [7] is 16.7 µM (inactive); in test [8], 36.7 µM (inactive); in test [9] it was 18.5 µM (inactive); in [10], 10.3 µM (inactive); in [11] it was 19.3 µM (inactive); in [12], 18.5 µM (inactive). The GI50 is 10.4 µM (inactive) in [13], 25.7 µM (inactive) in test [14] and 19.8 µM (inactive) in test [15].
Consider `O=C1OC2C(O)COC2(O)C1(O)Cc1c[nH]c2ccccc12.O=C1OC2C(O)COC2(OCc2c[nH]c3ccccc23)C1O` (stereo not given), for which the GI50 in [1], in test [2], in test [16], in [3], in [4] and in [5] was > 100 µM (inactive) each time. Also, the GI50 in [6], in test [7], in test [8], in test [9], in [11] and in [12] was > 100 µM (inactive) each time. Also, the GI50 in test [13], in [14] and in test [15] was > 100 µM (inactive) in each case.
As to `O=C(O)COc1ccc(C(=O)/C(SS/C(C(=O)c2ccc(OCC(=O)O)c(Cl)c2Cl)=C2\C=C(c3ccccc3Cl)SS2)=C2/C=C(c3ccccc3Cl)SS2)c(Cl)c1Cl`, the GI50 in test [1] is 19.8 µM (inactive); in [2] it was 31.2 µM (inactive); in test [16], 23.1 µM (inactive); in [3], 11.8 µM (inactive); in test [4] it was 18 µM (inactive); in test [5] it was 48.8 µM (inactive). The GI50 in test [6] is 21.3 µM (inactive); in test [7] it was 21.9 µM (inactive); in [8] it was 28.2 µM (inactive); in [9] it was 46.8 µM (inactive); in [10] it was 23.5 µM (inactive); in test [11], 2.23 µM (inactive). The GI50 in test [12] is 17.6 µM (inactive); in [13] it was 8.91 µM (inactive); in test [14], 21.7 µM (inactive); in test [15] it was 13 µM (inactive).
Consider `Cc1nc2c(s/c(=N\N)n2-c2ccccc2)c(=O)[nH]1`, for which the GI50 in test [1], in test [2], in test [16], in test [3], in test [4] and in test [5] was > 100 µM (inactive) each time. In addition, the GI50 in [6], in [7], in test [8], in test [9], in [10] and in [11] was > 100 µM (inactive) in each case. Moreover, the GI50 in test [12], in test [13], in test [14] and in [15] was > 100 µM (inactive) in each case.
For `O=C(NO)C(=O)Nc1ccc(Cl)cc1[N+](=O)[O-]`, the GI50 in test [1], in [2], in test [16], in test [3], in test [4] and in [5] was > 100 µM (inactive) each time. Also, the GI50 in test [6], in test [7], in [8], in test [9], in [10] and in [11] was > 100 µM (inactive) throughout. Also, the GI50 in [12], in test [13], in [14] and in test [15] was > 100 µM (inactive) throughout.
With `COc1ccc2[nH]c3c(C)c4cc[n+](COC(=O)c5ccccc5)cc4c(C)c3c2c1`, the GI50 in [1] was 0.168 µM (active); in test [2], 0.61 µM (active); in [16], 1.09 µM (active); in test [3] it was 0.305 µM (active); in test [4], 0.0378 µM (active); in test [5] it was 1.19 µM (inactive). Also, the GI50 is 0.158 µM (active) in [6]; 0.0379 µM (active) in test [7]; 0.641 µM (active) in test [8]; 0.269 µM (active) in test [9]; 0.101 µM (active) in [10]; 0.0313 µM (active) in test [11]. Moreover, the results for the GI50 in test [13], in test [14] and in [15] were 0.221 µM (active), 0.117 µM (active) and 0.0698 µM (active), respectively.
On to `O=c1c2ccccc2nc(-c2ccccc2)n1NC(=S)Nc1ccccc1`, for which the GI50 in test [1], in [2], in test [16], in [3], in test [4] and in [5] was > 100 µM (inactive) each time. The GI50 in test [6], in [7], in test [8], in [9], in test [10] and in [11] was > 100 µM (inactive) in each case. The GI50 in [12], in [13], in test [14] and in test [15] was > 100 µM (inactive) in each case.
Take `Cc1cc2oc(-c3ccccc3)c(C)c(=O)c2c2c1OC(C)(C)S2`: the GI50 was > 100 µM (inactive) in [1]; 43.7 µM (inactive) in test [2]; > 100 µM (inactive) in test [16]; > 100 µM (inactive) in [3]; 71 µM (inactive) in test [4]; 63.7 µM (inactive) in test [5]. The GI50 was > 100 µM (inactive) in [6]; 60.3 µM (inactive) in [7]; > 100 µM (inactive) in test [8]; 90.2 µM (inactive) in test [9]; > 100 µM (inactive) in [10]; 29.6 µM (inactive) in [11]. Also, the GI50 in test [12] was 61.2 µM (inactive); in test [13], 30.9 µM (inactive); in test [14], 34.2 µM (inactive); in test [15], 62.8 µM (inactive).
As for `CC(C)(C)Sc1nnc(SC(C)(C)C)c2c(SC(C)(C)C)nnc(O)c12`, the GI50 was 2.16 µM (inactive) in test [1]; 12.9 µM (inactive) in [2]; 9.91 µM (inactive) in test [16]; 10.6 µM (inactive) in test [3]; 3.78 µM (inactive) in test [4]; 13.6 µM (inactive) in test [5]. Besides, the GI50 in [6] was 8.51 µM (inactive); in [7] it was 3.37 µM (inactive); in [8], 14.8 µM (inactive); in test [9], 4.59 µM (inactive); in [11], 4.14 µM (inactive); in test [12] it was 12.4 µM (inactive). For the same compound, the GI50 was 4.74 µM (inactive) in test [13], 6.03 µM (inactive) in test [14] and 7.5 µM (inactive) in test [15].
